Measurements reported in ChEMBL document CHEMBL5661967, “Antitumor activity of HKI-272, an orally active, irreversible inhibitor of the HER-2 tyrosine kinase” (Cancer Res, 2004).
pIC50: −log10 of the molar value.

Target: Receptor tyrosine-protein kinase erbB-2 (Homo sapiens, UniProt P04626)
Experiment: Inhibition of recombinant N-terminal His6-tagged HER2 cytoplasmic domain (676 to 1255 residues) (unknown origin) expressed in baculovirus infected Sf9 insect cells assessed as reduction in autophosphorylation preincubated for 15 mins followed by ATP addition and measured after 1 hr by ELISA

Chain of Receptor tyrosine-protein kinase erbB-2 (P04626 whole entry, the tested form may be a part): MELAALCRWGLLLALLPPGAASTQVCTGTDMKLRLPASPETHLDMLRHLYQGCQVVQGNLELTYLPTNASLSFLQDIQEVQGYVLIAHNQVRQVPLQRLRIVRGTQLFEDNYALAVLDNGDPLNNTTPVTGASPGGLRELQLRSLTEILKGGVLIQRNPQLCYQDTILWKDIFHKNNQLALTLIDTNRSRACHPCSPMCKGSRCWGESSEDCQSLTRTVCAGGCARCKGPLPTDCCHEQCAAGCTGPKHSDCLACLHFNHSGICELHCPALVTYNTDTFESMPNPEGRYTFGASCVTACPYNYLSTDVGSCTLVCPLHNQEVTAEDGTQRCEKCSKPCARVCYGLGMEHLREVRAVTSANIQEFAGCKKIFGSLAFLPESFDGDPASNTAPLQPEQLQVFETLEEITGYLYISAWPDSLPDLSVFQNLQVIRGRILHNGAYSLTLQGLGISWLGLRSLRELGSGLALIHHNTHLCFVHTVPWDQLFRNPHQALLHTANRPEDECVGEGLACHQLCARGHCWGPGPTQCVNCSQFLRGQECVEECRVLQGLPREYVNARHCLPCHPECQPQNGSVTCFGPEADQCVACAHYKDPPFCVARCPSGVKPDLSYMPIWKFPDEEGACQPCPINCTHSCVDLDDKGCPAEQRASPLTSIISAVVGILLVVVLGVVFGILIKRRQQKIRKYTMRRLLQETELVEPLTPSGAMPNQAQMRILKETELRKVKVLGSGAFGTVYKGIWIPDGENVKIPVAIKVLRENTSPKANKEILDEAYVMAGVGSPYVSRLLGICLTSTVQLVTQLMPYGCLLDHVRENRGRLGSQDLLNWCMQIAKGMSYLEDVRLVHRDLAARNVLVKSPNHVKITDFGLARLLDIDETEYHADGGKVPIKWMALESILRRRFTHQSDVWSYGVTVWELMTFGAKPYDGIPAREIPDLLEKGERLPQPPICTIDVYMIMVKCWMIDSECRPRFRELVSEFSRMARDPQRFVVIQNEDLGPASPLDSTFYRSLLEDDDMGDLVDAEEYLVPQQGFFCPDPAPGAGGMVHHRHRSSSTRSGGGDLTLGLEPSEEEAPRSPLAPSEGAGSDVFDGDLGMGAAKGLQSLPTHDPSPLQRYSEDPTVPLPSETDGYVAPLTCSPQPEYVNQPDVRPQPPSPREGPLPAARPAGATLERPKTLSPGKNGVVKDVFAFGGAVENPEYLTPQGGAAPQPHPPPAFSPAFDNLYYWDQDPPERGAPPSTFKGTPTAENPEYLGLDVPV

pIC50: 5.90
Compound: CCOc1cc2ncc(C#N)c(Nc3ccc(F)c(Cl)c3)c2cc1NC(=O)/C=C/CN(C)C [PELITINIB]
